Assay results from publication PMC10060354, “Discovery of a small molecule ligand of FRS2 that inhibits invasion and tumor growth” (Cellular Oncology, 2022).
Several values for one entry are separate records, joined by “and”; a condition that tells them apart may be missing. Identical values can stand only once.

Assays:
FRS2 = target: T1, FRS2 (Homo sapiens, UniProt Q8WU20); test: CETSA by IB, cell lysates; assay type: binding; conditions: DAOY lysates
T1 construct: we used the cellular thermal shift assay (CETSA [36]) in DAOY cells; endogenous in cells; host or cells: DAOY cells (intact cells, or freeze-thaw lysates)
T1 sequence (Q8WU20 whole entry): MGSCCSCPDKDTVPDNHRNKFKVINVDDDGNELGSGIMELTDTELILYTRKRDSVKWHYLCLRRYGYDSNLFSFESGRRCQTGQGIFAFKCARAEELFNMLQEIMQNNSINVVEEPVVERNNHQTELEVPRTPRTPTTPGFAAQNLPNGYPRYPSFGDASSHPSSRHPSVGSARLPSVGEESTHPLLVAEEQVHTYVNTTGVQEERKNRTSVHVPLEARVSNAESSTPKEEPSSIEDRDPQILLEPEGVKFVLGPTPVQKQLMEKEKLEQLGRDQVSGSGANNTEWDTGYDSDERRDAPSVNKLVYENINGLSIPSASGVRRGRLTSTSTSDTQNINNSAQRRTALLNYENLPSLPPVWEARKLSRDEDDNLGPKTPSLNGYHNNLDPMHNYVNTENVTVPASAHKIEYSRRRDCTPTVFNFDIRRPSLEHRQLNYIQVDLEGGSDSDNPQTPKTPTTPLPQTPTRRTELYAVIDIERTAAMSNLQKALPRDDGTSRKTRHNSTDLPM
Description: Four 15 cm dishes with 0.5 × 10^6 DAOY cells per dish were grown in full medium o.n. Medium was then removed, cells washed with PBS, detached using trypsin, collected in regular growth medium, centrifuged (300 g, 25 °C, 5 min), washed with PBS and resuspended in 550 µl ice-cold PBS. Cells were lysed with three freeze–thaw cycles (freeze in liquid N2, thaw in 25 °C heat block, vortex quickly) and lysates were placed in aliquots of 250 µl on ice. Compound or solvent was added to 10 µM final concentration and samples were incubated 20 min at 4 °C under rotation. Ten 20 µl aliquots were dispensed in a pre-cooled PCR plate, which was sealed with aluminum foil and placed on ice until heat treatments. Heat treatment was performed in a gradient PCR machine with the following temperatures 40.5, 43.6, 46.2, 48.8. 51.2, 53.8, 56.4, 58.3, 61.7 and 73.8 °C for three min. Plate with samples was kept at RT for 3 min and then kept on ice until centrifugation for 2 min at 500 × g at RT.
Samples were incubated 1 h at 4 °C, with shaking at 500 rpm. Samples are filtered using a MultiScreenHTS HV-Filterplate (Merck, MSHVN4510). Membrane wells were prewetted with 50 µl PBS and centrifuged at 2000 g, RT, 3 min. The lysates were centrifuged at 2000 g, RT, 3 min and 40 µl of each supernatant was transferred to the filterplate and centrifuged at 500 g at RT for 5 min. […]

DAOY FRS2-FLAG cells = test: SIA, bFGF-induced collagen I invasion in FRS2-FLAG overexpressing cells; assay type: cell-based; conditions: Homo sapiens
Description: 1000—2500 cells/well in 100 μl were seeded in 96 well Corning® Spheroid microplate (CLS4520, Sigma-Aldrich) or in cell-repellent 96 well microplate (650,790, Greiner Bio-one). SIA and analysis was performed as described before. In brief: After spheroid formation (24 – 72 h after seeding), 70 µl medium was removed and replaced with the collagen mixture (2.5 mg/ml Pure Col Collagen I (Advanced Biomatrix)), DMEM 1x (from 10 × stock, Sigma, D2429) and 0.4% Sodium bicarbonate (Sigma, S8761)), resulting in a final collagen concentration of 1.75 mg/ml. Embedded spheroids were stimulated with bFGF (100 ng/ml if not otherwise stated), HGF (30 ng /ml) or EGF (20 ng/ml) and distance of invaded cells quantified 24 – 48 h after embedding. Compounds and BGJ398 were added in Dimethylsulfoxid (DMSO) and corresponding DMSO concentrations were used in control samples.
Lentiviral construct pLV[Exp]-hPGK > hFRS2[NM_001278357.1](ns)*/3xFLAG:P2A:Puro was ordered from VectorBuilder (Santa Clara, CA, USA). A FLAG-tag ([…]) was fused to the C-terminus of FRS2. Lentiviral particles were produced by transfection of HEK-293 T cells with transfer plasmids, psPAX2 (#12,260, Addgene) and pCMV-VSV-G plasmid (#8454, Addgene) in a ratio of 5:3:2 using polyethlenimine (24,765–2. Polysciences). Virus supernatant was harvested 30 h post transfection and filtered. […]

[1] = In vivo PK of 7 (30, 100, 200 mg/kg PO), plasma and liver exposure; set-up: species or system ICR mice; conditions: both sexes, ICR, mouse, plasma, 0.5 h after administration, read-out: plasma concentration reached
Description: In vivo PK studies were performed by Pharmacology Discovery Services Taiwan (New Taipei City, Taiwan). 7 (30, 100, and 200 mg/kg, PO) was further administered to groups of 2 male and 2 female (23 ± 3 g) satellite ICR mice in PK study; the plasma and liver samples were harvested at 0.5 h after administration. In addition, one additional group was dosed at 30 mg/kg and the plasma samples were harvested at 1 and 2 h(s) after the treatment. The body and liver weights were recorded. The exposure levels (ng/ml or ng/g) of 7 in plasma and liver samples were then determined by Liquid Chromatograph Tandem Mass Spectrometer (LC–MS/MS), and the plasma: liver ratios were calculated.

SMILES: O=[N+]([O-])c1c(Cl)cc(O)c2c1C1C=CCC1C(c1ccc(Cl)cc1)N2 (stereo not drawn) [Compound 7]
- ΔTm at 10 µM (FRS2): -4.93 °C
- IC50 (DAOY FRS2-FLAG cells): 4.16 µM
- concentration at 0.5 h [1]: 10000 ng/mL and > 20 µM
